According to article PMC4634248 (Influenza and Other Respiratory Viruses, 2013):
Entries after “also recorded” stand apart in the source; their conditions may differ.

Tested on: NA activity of A(H1N1)pdm09 viruses with the H275Y substitution
Assay type: biochemical, influenza A(H1N1)pdm09 virus

| SMILES | fold increased IC50 values (decreased susceptibility) of H275Y mutant viruses compared with 275H | resistance / sensitivity of H275Y mutant viruses to the NA inhibitor | IC50 values of H275Y mutants relative to those of viruses with 275H |
| --- | --- | --- | --- |
| CCC(CC)[C@H](NC(C)=O)[C@@H]1[C@H](O)[C@@H](C(=O)O)C[C@H]1N=C(N)N [peramivir] | ~140 fold | resistance; also recorded: resistant |  |
| CCC(CC)O[C@@H]1C=C(C(=O)O)C[C@H](N)[C@H]1NC(C)=O [oseltamivir, oseltamivir carboxylate] | about 400 fold | resistance; also recorded: resistant |  |
| [H]/N=C(\N)N[C@H]1C=C(C(=O)O)O[C@@H]([C@H](OC)[C@H](O)CO)[C@@H]1NC(C)=O [laninamivir] |  | sensitive | comparable |
| CC(=O)N[C@H]1[C@H]([C@H](O)[C@H](O)CO)OC(C(=O)O)=C[C@@H]1N=C(N)N [zanamivir] |  | sensitive | comparable |
